target: T1, SGK1 (Homo sapiens, UniProt O00141); assay: SGK1 inhibition Assay B (Echo mass spectrometry of phosphorylated peptide product); assay type: biochemical; conditions: 60 min at room temperature
T1 sequence (O00141 1-431): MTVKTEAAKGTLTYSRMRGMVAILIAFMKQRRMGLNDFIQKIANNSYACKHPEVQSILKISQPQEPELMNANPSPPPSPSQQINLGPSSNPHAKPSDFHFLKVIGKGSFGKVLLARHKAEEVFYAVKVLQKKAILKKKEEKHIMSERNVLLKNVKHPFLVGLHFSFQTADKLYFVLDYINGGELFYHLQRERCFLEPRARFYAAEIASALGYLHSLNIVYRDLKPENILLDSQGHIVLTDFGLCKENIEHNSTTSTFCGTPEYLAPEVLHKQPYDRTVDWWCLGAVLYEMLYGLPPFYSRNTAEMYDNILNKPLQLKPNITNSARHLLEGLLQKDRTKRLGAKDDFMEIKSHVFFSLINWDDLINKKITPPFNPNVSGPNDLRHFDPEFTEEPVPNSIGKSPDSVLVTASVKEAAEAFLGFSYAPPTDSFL

Point of comparison: `Cc1cc(-c2cc(N3CCC[C@@H](NC(=O)c4cccc(N5CC6(C5)CN(C(C)C)C6)n4)C3)c3c(N)ncnn23)ccc1-n1cnnn1` [Example 822], IC50 0.004 µM. Against it:
- CN1CCN(c2cccc(C(=O)N[C@@H]3CCCN(c4cc(-c5ccc(-n6cccn6)cc5)n5ncnc(N)c45)C3)n2)CC1 [Example 808, (R)-N-(1-(7-(4-(1H-pyrazol-1-yl)phenyl)-4-aminopyrrolo[2,1-f][1,2,4]triazin-5-yl)piperidin-3-yl)-6-(4-methylpiperazin-1-yl)picolinamide] — 8.5-fold higher, 0.034 µM
- CC(=O)c1ccc(-c2cc(N3CCC[C@@H](NC(=O)c4cccc(N5CCN(C)CC5)n4)C3)c3c(N)ncnn23)cn1 [Example 809, (R)-N-(1-(7-(6-acetylpyridin-3-yl)-4-aminopyrrolo[2,1-f][1,2,4]triazin-5-yl)piperidin-3-yl)-6-(4-methylpiperazin-1-yl)picolinamide] — 20-fold higher, 0.08 µM
- CN1CCN(c2cccc(C(=O)N[C@@H]3CCCN(c4cc(-c5ccc(F)c(F)c5)n5ncnc(N)c45)C3)n2)CC1 [Example 811, (R)-N-(1-(4-amino-7-(3,4-difluorophenyl)pyrrolo[2,1-f][1,2,4]triazin-5-yl)piperidin-3-yl)-6-(4-methylpiperazin-1-yl)picolinamide] — 11-fold higher, 0.045 µM
- CC(C)N1CC2(CN(c3cccc(C(=O)N[C@@H]4CCCN(c5cc(-c6ccc(-n7cnnn7)c(F)c6)n6ncnc(N)c56)C4)n3)C2)C1 [Example 816, (R)-N-(1-(4-amino-7-(3-fluoro-4-(1H-tetrazol-1-yl)phenyl)pyrrolo[2,1-f][1,2,4]triazin-5-yl)piperidin-3-yl)-6-(6-isopropyl-2,6-diazaspiro[3.3]heptan-2-yl)picolinamide] — 1.5-fold higher, 0.006 µM
- CC(C)N1CC2(CN(c3cccc(C(=O)N[C@@H]4CCCN(c5cc(-c6ccc(C#N)nc6)n6ncnc(N)c56)C4)n3)C2)C1 [Example 817, (R)-N-(1-(4-amino-7-(6-cyanopyridin-3-yl)pyrrolo[2,1-f][1,2,4]triazin-5-yl)piperidin-3-yl)-6-(6-isopropyl-2,6-diazaspiro[3.3]heptan-2-yl)picolinamide] — 3.5-fold higher, 0.014 µM
- CC(C)N1CC2(CN(c3cccc(C(=O)N[C@@H]4CCCN(c5cc(-c6ccc(C#N)c(F)c6)n6ncnc(N)c56)C4)n3)C2)C1 [Example 818, (R)-N-(1-(4-amino-7-(4-cyano-3-fluorophenyl)pyrrolo[2,1-f][1,2,4]triazin-5-yl)piperidin-3-yl)-6-(6-isopropyl-2,6-diazaspiro[3.3]heptan-2-yl)picolinamide] — within 1.5-fold, 0.003 µM
- COC(=O)N1CC=C(c2cc(N3CCC[C@@H](NC(=O)c4cccc(N5CC6(C5)CN(C(C)C)C6)n4)C3)c3c(N)ncnn23)C1 [Example 819, methyl (R)-3-(4-amino-5-(3-(6-(6-isopropyl-2,6-diazaspiro[3.3]heptan-2-yl)picolinamido)piperidin-1-yl)pyrrolo[2,1-f][1,2,4]triazin-7-yl)-2,5-dihydro-1H-pyrrole-1-carboxylate] — 5.2-fold higher, 0.021 µM
- CNC(=O)c1ccc(-c2cc(N3CCC[C@@H](NC(=O)c4cccc(N5CC6(C5)CN(C(C)C)C6)n4)C3)c3c(N)ncnn23)cn1 [Example 820] — 5.2-fold higher, 0.021 µM
- CC(C)N1CC2(CN(c3cccc(C(=O)N[C@@H]4CCCN(c5cc(-c6ccc7cnn(C)c7c6)n6ncnc(N)c56)C4)n3)C2)C1 [Example 821, (R)-N-(1-(4-amino-7-(1-methyl-1H-indazol-6-yl)pyrrolo[2,1-f][1,2,4]triazin-5-yl)piperidin-3-yl)-6-(6-isopropyl-2,6-diazaspiro[3.3]heptan-2-yl)picolinamide] — 17-fold higher, 0.069 µM
- CC(C)N1CC2(CN(c3cccc(C(=O)N[C@@H]4CCCN(c5cc(-c6ccc(-n7cnnn7)c(F)c6F)n6ncnc(N)c56)C4)n3)C2)C1 [Example 823, (R)-N-(1-(4-amino-7-(2,3-difluoro-4-(1H-tetrazol-1-yl)phenyl)pyrrolo[2,1-f][1,2,4]triazin-5-yl)piperidin-3-yl)-6-(6-isopropyl-2,6-diazaspiro[3.3]heptan-2-yl)picolinamide] — 4.5-fold higher, 0.018 µM
- CC(C)N1CC2(CN(c3cccc(C(=O)N[C@@H]4CCCN(c5cc(-c6ccc(-n7cnnn7)c(CO)c6)n6ncnc(N)c56)C4)n3)C2)C1 [Example 824, (R)-N-(1-(4-amino-7-(3-(hydroxymethyl)-4-(1H-tetrazol-1-yl)phenyl)pyrrolo[2,1-f][1,2,4]triazin-5-yl)piperidin-3-yl)-6-(6-isopropyl-2,6-diazaspiro[3.3]beptan-2-yl)picolinamide] — 2.5-fold higher, 0.01 µM
- CC(C)N1CC2(CN(c3cccc(C(=O)N[C@@H]4CCCN(c5cc(-c6cc(F)c(-n7cnnn7)cc6F)n6ncnc(N)c56)C4)n3)C2)C1 [Example 825, (R)-N-(1-(4-amino-7-(2,5-difluoro-4-(1H-tetrazol-1-yl)phenyl)pyrrolo[2,1-f][1,2,4]triazin-5-yl)piperidin-3-yl)-6-(6-isopropyl-2,6-diazaspiro[3.3]heptan-2-yl)picolinamide] — 1.8-fold higher, 0.007 µM
- CC(C)N1CC2(CN(c3cccc(C(=O)N[C@@H]4CCCN(c5cc(-c6cc(F)c(-n7cnnn7)c(F)c6)n6ncnc(N)c56)C4)n3)C2)C1 [Example 826, (R)-N-(1-(4-amino-7-(3,5-difluoro-4-(1H-tetrazol-1-yl)phenyl)pyrrolo[2,1-f][1,2,4]triazin-5-yl)piperidin-3-yl)-6-(6-isopropyl-2,6-diazaspiro[3.3]heptan-2-yl)picolinamide] — within 1.5-fold, 0.003 µM
- COc1cc(-c2cc(N3CCC[C@@H](NC(=O)c4cccc(N5CC6(C5)CN(C(C)C)C6)n4)C3)c3c(N)ncnn23)ccc1-n1cnnn1 [Example 827, (R)-N-(1-(4-amino-7-(3-methoxy-4-(1H-tetrazol-1-yl)phenyl)pyrrolo[2,1-f][1,2,4]triazin-5-y1)piperidin-3-yl)-6-(6-isopropyl-2,6-diazaspiro[3.3]heptan-2-yl)picolinamide] — 1.8-fold higher, 0.007 µM
- CC(C)N1CC2(CN(c3cccc(C(=O)N[C@@H]4CCCN(c5cc(-c6cnc(-n7cnnn7)nc6)n6ncnc(N)c56)C4)n3)C2)C1 [Example 828, (R)-N-(1-(7-(2-(1H-tetrazol-1-yl)pyrimidin-5-yl)-4-aminopyrrolo[2,1-f][1,2,4]triazin-5-yl)piperidin-3-yl)-6-(6-isopropyl-2,6-diazaspiro[3.3]heptan-2-yl)picolinamide] — 6.2-fold higher, 0.025 µM
- Cc1nnnn1-c1ccc(-c2cc(N3CCC[C@@H](NC(=O)c4cccc(N5CC6(C5)CN(C(C)C)C6)n4)C3)c3c(N)ncnn23)cc1 [Example 829, (R)-N-(1-(4-amino-7-(4-(5-methyl-1H-tetrazol-1-yl)phenyl)pyrrolo[2,1-f][1,2,4]triazin-5-yl)piperidin-3-yl)-6-(6-isopropyl-2,6-diazaspiro[3.3]heptan-2-yl)picolinamide] — 2-fold lower, 0.002 µM
- CC(C)N1CC2(CN(c3cccc(C(=O)N[C@@H]4CCCN(c5cc(-c6cnc(-n7cnnn7)c(F)c6)n6ncnc(N)c56)C4)n3)C2)C1 [Example 830, (R)-N-(1-(4-amino-7-(5-fluoro-6-(1H-tetrazol-1-yl)pyridin-3-yl)pyrrolo[2,1-f][1,2,4]triazin-5-yl)piperidin-3-yl)-6-(6-isopropyl-2,6-diazaspiro[3.3]heptan-2-yl)picolinamide] — the same, 0.004 µM
- CC(=O)c1ccc(-c2cc(N3CCC[C@@H](NC(=O)c4cccc(N5CC6(C5)CN(C(C)C)C6)n4)C3)c3c(N)ncnn23)cn1 [Example 831, (R)-N-(1-(7-(6-acetylpyridin-3-yl)-4-aminopyrrolo[2,1-f][1,2,4]triazin-5-yl)piperidin-3-yl)-6-(6-isopropyl-2,6-diazaspiro[3.3]heptan-2-yl)picolinamide] — 5.5-fold higher, 0.022 µM
- CC(C)N1CC2(CN(c3cccc(C(=O)N[C@@H]4CCCN(c5cc(-c6ccc(S(C)(=O)=O)cc6)n6ncnc(N)c56)C4)n3)C2)C1 [Example 832, (R)-N-(1-(4-amino-7-(4-(methylsulfonyl)phenyl)pyrrolo[2,1-f][1,2,4]triazin-5-yl)piperidin-3-yl)-6-(6-isopropyl-2,6-diazaspiro[3.3]heptan-2-yl)picolinamide] — 3-fold higher, 0.012 µM
- CC(C)N1CC2(CN(c3cccc(C(=O)N[C@@H]4CCCN(c5cc(-c6ccc(S(C)(=O)=O)c(F)c6)n6ncnc(N)c56)C4)n3)C2)C1 [Example 833, (R)-N-(1-(4-amino-7-(3-fluoro-4-(methylsulfonyl)phenyl)pyrrolo[2,1-f][1,2,4]triazin-5-yl)piperidin-3-yl)-6-(6-isopropyl-2,6-diazaspiro[3.3]heptan-2-yl)picolinamide] — 2.2-fold higher, 0.009 µM
- CC(C)N1CC2(CN(c3cccc(C(=O)N[C@@H]4CCCN(c5cc(-c6ccc(S(C)(=O)=O)nc6)n6ncnc(N)c56)C4)n3)C2)C1 [Example 834, (R)-N-(1-(4-amino-7-(6-(methylsulfonyl)pyridin-3-yl)pyrrolo[2,1-f][1,2,4]triazin-5-yl)piperidin-3-yl)-6-(6-isopropyl-2,6-diazaspiro[3.3]heptan-2-yl)picolinamide] — 5-fold higher, 0.02 µM
- CNC(=O)c1ccc(-c2cc(N3CCC[C@@H](NC(=O)c4sc(Cl)cc4OCCN(C)C)C3)c3c(N)ncnn23)cn1 [Example 835, (R)-5-(4-amino-5-(3-(5-chloro-3-(2-(dimethylamino)ethoxy)thiophene-2-carboxamido)piperidin-1-yl)pyrrolo[2,1-f][1,2,4]triazin-7-yl)-N-methylpicolinamide] — 3.2-fold higher, 0.013 µM
- CN1C2CCC1CC(Oc1cc(Cl)sc1C(=O)NC1CCCN(c3cc(-c4cnn(C(F)F)c4)n4ncnc(N)c34)C1)C2 [Example 836, N-((R)-1-(4-amino-7-(1-(difluoromethyl)-1H-pyrazol-4-yl)pyrrolo[2,1-f][1,2,4]triazin-5-yl)piperidin-3-yl)-5-chloro-3-(((1R,3s,5S)-8-methyl-8-azabicyclo[3.2.1]octan-3-yl)oxy)thiophene-2-carboxamide] — 2-fold lower, 0.002 µM

— US20260250290A1 (BRISTOL-MYERS SQUIBB COMPANY, priority 2023, published 2026)
